The target of the assay is T1, α-glucosidase (Saccharomyces cerevisiae, UniProt P53341).
T1 construct: purchased Sigma-Aldrich G0660
In words: biochemical. It is filed as biochemical. To be noted: 37 °C, 30 minutes, pH 6.8. As to the method:
All analytically graded reagents were purchased from either Sigma-Aldrich or Merck & Co. and used without further purification. Solvents for column chromatography were distilled before use. Melting points (in °C) were determined on a Thermo Mel-temp 3.0 (USA). Infrared (IR) spectra were recorded on an IMPACT 410 Nicolet Spectrometer. ESI-MS spectra were obtained from an 1100 Agilent LC/MS ion Trap. 1D (^1H, ^13C and DEPT) and 2D (HSQC, HMBC, COSY, NOESY) NMR spectra were recorded on a Bruker Avance 500 MHz using tetramethylsilane (TMS) as the internal standard for ^1H and solvent signal for ^13C NMR. Thin-layer chromatography (TLC) was carried out on a pre-coated silica gel 60 F254 (Merck & Co.), visualised under ultraviolet (UV) radiation at λmax 254 nm, and stained by a solution of 1% (w/w) vanillin in sulfuric acid. Column chromatography (CC) was performed on silica gel 300–400 mesh (Merck & Co.). Enzyme α-glucosidase was purchased from Sigma-Aldrich under the name code G0660, detected by a Biotek Epoch 2 microplate readers (USA).
Each assay was performed on 96 well-plates (200 μL per well). The test samples were dissolved in DMSO 10% and further diluted to the concentrations: 1024, 256, 64, 16, 4, 1 μg.mL^−1. Each concentration of the test sample (10 μL) was incubated at 37 °C with phosphate buffer 100 mM (pH 6.8, 40 μL), α-glucosidase 0.4 U mL^−1 (25 μL), p-nitrophenyl α-D-glucopyranoside 2.5 mM (25 μL). After 30 minutes, the reaction was terminated by adding 100 μL of 0.1 M Na2CO3 solution. The enzyme activities were determined by measuring the absorbance at λmax 410 nm. […] Percentage of inhibition was calculated as followed:[31] [drawing 1]

Where [1] appears, read: IC50 (α-glucosidase inhibitory activity).

The structures appear in SMILES notation. Read-outs that look alike come from different tables or passages of the source. Some results are limits rather than exact numbers.

T1 sequence (P53341 whole entry): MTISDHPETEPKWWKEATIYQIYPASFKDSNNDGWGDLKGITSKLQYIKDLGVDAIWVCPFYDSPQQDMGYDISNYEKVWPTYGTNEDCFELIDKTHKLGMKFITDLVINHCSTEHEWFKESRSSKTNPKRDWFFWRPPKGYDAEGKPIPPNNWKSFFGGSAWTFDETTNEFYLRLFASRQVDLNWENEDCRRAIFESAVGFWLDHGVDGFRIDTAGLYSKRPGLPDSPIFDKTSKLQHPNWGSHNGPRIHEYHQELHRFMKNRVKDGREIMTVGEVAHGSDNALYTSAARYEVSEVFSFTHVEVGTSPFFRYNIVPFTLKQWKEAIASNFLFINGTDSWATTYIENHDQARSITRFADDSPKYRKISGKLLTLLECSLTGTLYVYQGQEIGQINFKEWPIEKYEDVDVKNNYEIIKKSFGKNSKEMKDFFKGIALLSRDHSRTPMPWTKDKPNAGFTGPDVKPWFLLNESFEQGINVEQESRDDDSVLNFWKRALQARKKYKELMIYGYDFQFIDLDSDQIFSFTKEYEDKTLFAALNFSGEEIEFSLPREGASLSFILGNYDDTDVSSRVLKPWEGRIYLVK

What is called IC50 is the midpoint of a concentration-inhibition curve. Regarding `COc1ccc(CCC(=O)OC2C3C=COC(OC4OC(CO)C(O)C(O)C4O)C3C3(CO)OC23)cc1` (stereo not shown) [Compound 3, 6-O-(4-methoxyphenylpropanoyl)catalpol], the “IC50 (α-glucosidase inhibitory activity)” value is “inactive”. For the same molecule, under setting [1], the IC50 was > 390 µM. As for `COc1ccc(CCC(=O)OC2C3C=COC(OC4OC(CO)C(O)C(O)C4O)C3C3(CO)OC23)cc1OC` (stereo not shown) [Compound 4, 6-O-(3,4-dimethoxyphenylpropanoyl)catalpol], the “IC50 (α-glucosidase inhibitory activity)” value is “inactive”. Further, the IC50 under setting [1] is > 390 µM. Regarding `COc1ccc(C=CC(=O)OC2C3C=COC(OC4OC(COC(C)=O)C(OC(C)=O)C(OC(C)=O)C4OC(C)=O)C3C3(COC(C)=O)OC23)cc1OC(C)=O` (stereo not shown) [Compound 11, 6-O-[(E)-4-methoxycinnamoyl]catalpolhexaacetate], the “IC50 (α-glucosidase inhibitory activity)” value was “inactive”. The 50% inhibitory concentration (IC50) under setting [1] is > 390 µM. Under setting [1], `CC(=CCO)CCC=C(C)C(=O)OC1C2C=COC(OC3OC(CO)C(O)C(O)C3O)C2C2(CO)OC12` (stereo not shown) [Compound 10, nemoroside] displayed a half-maximal inhibitory concentration (IC50) of 0.05 µM.

Take `COc1ccc(C=CC(=O)OC2C3C=COC(OC4OC5COC(C)(C)OC5C(O)C4O)C3C3(CO)OC23)cc1` (stereo not shown) [Compound 9, 6-O-[(E)-4-methoxycinnamoyl]catalpol-4′,6′-acetonide]: the IC50 under setting [1] is > 390 µM. On the same count and under the same terms, then `COc1ccc(C=CC(=O)OC2C3C=COC(OC4OC(CO)C(O)C(O)C4O)C3C3(CO)OC23)cc1OC` (stereo not shown) [Compound 2, 6-O-[(E)-3,4-dimethoxycinnamoyl]catalpol], with 7.24 µM. As for `COc1ccc(/C=C/C(=O)O[C@H]2[C@@H]3C=CO[C@@H](O[C@@H]4O[C@H](CO)[C@@H](O)[C@H](O)[C@H]4O)[C@@H]3[C@@]3(CO)O[C@@H]23)cc1O` [Compound 13, minecoside], under setting [1], the IC50 was found to be 20.8 µM.

Consider `O=C(/C=C/c1ccc(O)cc1)O[C@H]1[C@@H]2C=CO[C@@H](O[C@@H]3O[C@H](CO)[C@@H](O)[C@H](O)[C@H]3O)[C@@H]2[C@@]2(CO)O[C@@H]12` [Compound 14, specioside], for which the IC50 (read-out: IC50 (α-glucosidase inhibitory activity)) was 8.65 µM. Under setting [1], `COc1ccc(C=CC(=O)OC2C3C=COC(OC4OC(COC(C)=O)C(OC(C)=O)C(OC(C)=O)C4OC(C)=O)C3C3(COC(C)=O)OC23)cc1` (stereo not shown) [Compound 7, minecoside pentaacetate] gave an IC50 of 168 µM. Still for that read-out and setting: the value for `CC(=O)OCC1OC(OC2OC=CC3C(OC(=O)C=Cc4ccc(OC(C)=O)cc4)C4OC4(COC(C)=O)C23)C(OC(C)=O)C(OC(C)=O)C1OC(C)=O` (stereo not shown) [Compound 12, specioside hexaacetate] was 71.6 µM.

In the case of `COc1ccc(CCC(=O)OC2C3C=COC(OC4OC(COC(C)=O)C(OC(C)=O)C(OC(C)=O)C4OC(C)=O)C3C3(COC(C)=O)OC23)cc1OC` (stereo not shown) [Compound 5, 6-O-(3,4-dimethoxyphenylpropanoyl)catalpolpentaacetate], the “IC50 (α-glucosidase inhibitory activity)” value was “inactive”. Besides, under setting [1], the 50% inhibitory concentration (IC50) was > 390 µM.

Consider `COc1ccc(C=CC(=O)OC2C3C=COC(OC4OC(COC(C)=O)C(OC(C)=O)C(OC(C)=O)C4OC(C)=O)C3C3(COC(C)=O)OC23)cc1OC` (stereo not shown) [Compound 8, 6-O-[(E)-3,4-dimethoxycinnamoyl]catalpolpentaacetate], for which the “IC50 (α-glucosidase inhibitory activity)” value was “inactive”. Moreover, the IC50 under setting [1] is > 390 µM. Molecule `COc1ccc(C=CC(=O)OC2C3C=COC(OC4OC(CO)C(O)C(O)C4O)C3C3(CO)OC23)cc1` (stereo not shown) [Compound 1, 6-O-[(E)-4-methoxycinnamoyl]catalpol] had an IC50 under setting [1] of 24.9 µM. Molecule `COc1ccc(C=CC(=O)OC2C3C=COC(OC4OC(COC(c5ccccc5)(c5ccccc5)c5ccccc5)C(O)C(O)C4O)C3C3(COC(c4ccccc4)(c4ccccc4)c4ccccc4)OC23)cc1OC` (stereo not shown) [Compound 6, 6-O-[(E)-3,4-dimethoxy]catalpol-10,6′-O-ditriphenylmethyl] showed an IC50 under setting [1] of 225 µM.

Source of the values: article PMC8696980, “Isolation, semi-synthesis, docking-based prediction, and bioassay-based activity of Dolichandrone spathacea iridoids: new catalpol derivatives as glucosidase inhibitors” (RSC Advances, 2021).
